According to BindingDB's records for doi:10.1016/s0960-894x(01)00631-x (Novartis Pharma, 2001):

biological target: Substance-P receptor (Bos taurus); assay: In vitro binding affinity for Tachykinin receptor 1 of bovine retinal membranes using [3H]Sar9-substance P as radioligand

**Q.** Which IC50 does the source give for CN(C(=O)c1cc(C(F)(F)F)cc(C(F)(F)F)c1)[C@@H](/C=C/C(=O)NC1CCCCCC1)Cc1ccc(Cl)cc1 [N-[(E)-(R)-1-(4-Chloro-benzyl)-3-cycloheptylcarbamoyl-allyl]-N-methyl-3,5-bis-trifluoromethyl-benzamide] here?
**A.** Its IC50 is 12 nM.

**Q.** CN(C(=O)c1cc(C(F)(F)F)cc(C(F)(F)F)c1)[C@@H](/C=C/C(=O)NC1(C(N)=O)CCCCC1)Cc1ccc(Cl)cc1 [N-[(E)-(R)-3-(1-Carbamoyl-cyclohexylcarbamoyl)-1-(4-chloro-benzyl)-allyl]-N-methyl-3,5-bis-trifluoromethyl-benzamide] was tested. Which IC50 did it give?
**A.** The IC50 was 1 nM.

**Q.** Which IC50 does the source give for CN(C(=O)c1cc(C(F)(F)F)cc(C(F)(F)F)c1)[C@@H](/C=C/C(=O)N[C@@H]1CCCCNC1=O)Cc1cn(C)c2ccccc12 [N-Methyl-N-[(E)-(R)-1-(1-methyl-1H-indol-3-ylmethyl)-3-((R)-2-oxo-azepan-3-ylcarbamoyl)-allyl]-3,5-bis-trifluoromethyl-benzamide] here?
**A.** The IC50 was 0.5 nM.

**Q.** Which IC50 does the source give for CN(C(=O)c1cc(C(F)(F)F)cc(C(F)(F)F)c1)N(CCC(=O)N[C@@H]1CCCCNC1=O)Cc1ccc2ccccc2c1 [3-[N'-(3,5-Bis-trifluoromethyl-benzoyl)-N'-methyl-N-naphthalen-2-ylmethyl-hydrazino]-N-((R)-2-oxo-azepan-3-yl)-propionamide] here?
**A.** Its IC50 is 6.4 nM.

**Q.** Which IC50 does the source give for CN(C(=O)c1cc(C(F)(F)F)cc(C(F)(F)F)c1)N(CCC(=O)N[C@@H]1CCCCNC1=O)Cc1cc(Br)c(Br)s1 [3-[N'-(3,5-Bis-trifluoromethyl-benzoyl)-N-(4,5-dibromo-thiophen-2-ylmethyl)-N'-methyl-hydrazino]-N-((R)-2-oxo-azepan-3-yl)-propionamide] here?
**A.** The IC50 was 18 nM.

**Q.** How did the IC50 turn out when CN(C(=O)c1cc(C(F)(F)F)cc(C(F)(F)F)c1)N(CCC(=O)N[C@@H]1CCCCNC1=O)Cc1ccc(Cl)c(Cl)c1 [3-[N'-(3,5-Bis-trifluoromethyl-benzoyl)-N-(3,4-dichloro-benzyl)-N'-methyl-hydrazino]-N-((R)-2-oxo-azepan-3-yl)-propionamide] was run?
**A.** The IC50 was 1.4 nM.

**Q.** How did the IC50 turn out when CN(C(=O)c1cc(C(F)(F)F)cc(C(F)(F)F)c1)[C@@H](/C=C/C(=O)N[C@@H]1CCCCNC1=O)Cc1ccc(Cl)c(Cl)c1 [N-[(R,R)-(E)-(3,4-dichlorobenzyl)-3-(2-oxoazepan-3-yl)carbamoyl]allyl-N-methyl-3,5-bis(trifluoromethyl)benzamide] was run?
**A.** The IC50 was 4.8 nM.

**Q.** For CN(C(=O)c1cc(C(F)(F)F)cc(C(F)(F)F)c1)[C@@H](/C=C/C(=O)N[C@@H]1CCCCNC1=O)Cc1ccc2ccccc2c1 [N-Methyl-N-[(E)-(R)-1-naphthalen-2-ylmethyl-3-((R)-2-oxo-azepan-3-ylcarbamoyl)-allyl]-3,5-bis-trifluoromethyl-benzamide], which IC50 is on record?
**A.** The IC50 was 1.1 nM.

**Q.** Which IC50 does the source give for CN(C(=O)c1cc(C(F)(F)F)cc(C(F)(F)F)c1)[C@@H](/C=C/C(=O)N[C@@H]1CCCCNC1=O)Cc1cc(Br)c(Br)s1 [N-[(E)-(R)-1-(4,5-Dibromo-thiophen-2-ylmethyl)-3-((R)-2-oxo-azepan-3-ylcarbamoyl)-allyl]-N-methyl-3,5-bis-trifluoromethyl-benzamide] here?
**A.** The IC50 was 20 nM.
